Experimental data: patent publication US9827292B2, “Use of KGF in the treatment of menopausal disorders” (Università degli Studi di Roma “La Sapienza”, priority 2012, dated 2017)

Columns and labels:
MAPK p38 = experiment: Western blot of p38 phosphorylation in MCF-7 cells; assay type: cell-based, human; conditions: 20 ng/ml, 5 or 30 minutes, FIG. 2B
Protocol: (§1) The oestrogen receptor α-positive MCF-7 human breast adenocarcinoma cell line, acquired from American Type Culture Collection (no. HTB-22, ATCC-LGC Promochem, Teddington, UK), was cultured in Dulbecco's modified eagle's medium (DMEM; Invitrogen, Karlsruhe, Germany), supplemented with 10% foetal bovine serum (FBS; Invitrogen) and antibiotics. Primary cultures of human oestrogen-sensitive keratinocytes (KCs) were established from 1 cm^2 full-thickness mucosal biopsy of the vaginal vestibule. Following enzymatic dissociation, the keratinocytes were seeded onto culture plates coated with collagen IV (10 mg/ml), as previously reported [Panici et al, 2007], and were maintained in basal medium of the keratinocytes (KBM, Lonza) supplemented with aliquots of KGM (Lonza), with medium change twice a week. […]
(§2) MCF-7 cells untreated or treated with KGF or E2 were lysed in RIPA buffer. […] The bound antibody was detected by enhanced chemiluminescence detection reagents (Pierce Biotechnology, Inc, Rockford, Ill., USA), according to manufacturer's instructions. […] Densitometric analysis was performed using Quantity One Program (Bio-Rad Laboratories srl, Segrate, MI, Italy).

[1] = test system: human oestrogen-sensitive keratinocytes (KCs); experiment: Proliferation of primary vaginal keratinocytes (Ki67 immunofluorescence; crystal violet); assay type: cell-based; conditions: for proliferative effect in the presence of tamoxifen: tamoxifen 100 nM, anti-Ki67 and crystal violet, FIG. 1D
Protocol: as §1, with “week. For all the experiments with 17β-oestradiol (E2) and tamoxifen, the MCF-7 cells were cultivated in DMEM without phenol red with 10% FBS treated with dextran/carbon (Invitrogen), and the KCs were transferred to a steroid medium of reduced concentration (KGM without EGF and BPE).” for “week.”
The cells, grown on glass coverslips, were treated as described above, then fixed in 4% paraformaldehyde in phosphate-buffered saline (PBS) for 30 min at 25° C., followed by treatment with 0.1 M glycine in PBS for 20 min at 25° C. and with 0.1% Triton X-100 in PBS for an additional 5 min at 25° C. to allow permeabilisation. To assess cell proliferation, the cells were incubated with an anti-Ki67 rabbit polyclonal antibody (1:50 in PBS; Zymed Laboratories, San Francisco, Calif.), which identifies cycling cells. The primary antibody was visualised using Texas Red conjugated goat anti-rabbit IgG (1:100 in PBS; Jackson ImmunoResearch Laboratories, West Grove, Pa.). The nuclei were visualised using 4′,6-diamido-2-phenylindole dihydrochloride (DAPI) (1:10000 in PBS; Sigma-Aldrich). Fluorescence signals were analysed by recording stained images using a cooled CCD colour digital camera SPOT-2 (Diagnostic Instruments Incorporated, Sterling Heights, Mich.) and Axiovision software (Carl Zeiss Inc., Oberkochen, Germany).
The percentage of Ki67-positive cells was evaluated by counting, for each treatment, a total of 500 cells, randomly taken from ten microscopic fields in three different experiments, expressed as mean value±95% CI and recorded as graphs. For the experiments concerning localisation of ERα, the cytoskeleton of actin was visualised using TRITC phalloidin (1:100 in PBS) and ERα was visualised using an anti-ERα monoclonal antibody (Santa Cruz) (1:100 in PBS). The stained single and combined images were captured using Zeiss Apotome® and AxioVision software (Carl Zeiss, Jena, Germany) using 40× lenses.
To evaluate the cytotoxicity of cells treated with tamoxifen, the MCF-7 cells were treated as described above, fixed for 10 min in a solution of 10% acetic acid-10% methanol, stained with crystal violet (1% w/v) and photographed using a Power Shot G5 digital camera (Canon, Inc., Tokyo, Japan).

MAPK ERK1 and 2 = experiment: Western blot of ERK phosphorylation in MCF-7 cells; assay type: cell-based, human; conditions: 20 ng/ml, FIG. 2A; for activation (phosphorylation) of ERK1 and 2: 5 and 30 minutes of treatment
Protocol: The oestrogen receptor α-positive MCF-7 human breast adenocarcinoma cell line, acquired from American Type Culture Collection (no. HTB-22, ATCC-LGC Promochem, Teddington, UK), was cultured in Dulbecco's modified eagle's medium (DMEM; Invitrogen, Karlsruhe, Germany), supplemented with 10% foetal bovine serum (FBS; Invitrogen) and antibiotics. Primary cultures of human oestrogen-sensitive keratinocytes (KCs) were established from 1 cm^2 full-thickness mucosal biopsy of the vaginal vestibule. Following enzymatic dissociation, the keratinocytes were seeded onto culture plates coated with collagen IV (10 mg/ml), as previously reported [Panici et al, 2007], and were maintained in basal medium of the keratinocytes (KBM, Lonza) supplemented with aliquots of KGM (Lonza), with medium change twice a week. For all the experiments with 17β-oestradiol (E2) and tamoxifen, the MCF-7 cells were cultivated in DMEM without phenol red with 10% FBS treated with dextran/carbon (Invitrogen), and the KCs were transferred to a steroid medium of reduced concentration (KGM without EGF and BPE). Both MCF-7 and KC were deprived of serum for 4 hours and then treated for 48 h with human recombinant KGF (Upstate Biotechnology, Lake Placid, N.Y.), E2 (Sigma-Aldrich, Milan, Italy), tamoxifen (Sigma-Aldrich, 100 nM) or combinations thereof.
MCF-7 cells untreated or treated with KGF or E2 were lysed in RIPA buffer. Total proteins (50-150 μg) were broken down under reducing conditions by 7%-10% SDS-PAGE and transferred to Immobilon-FL membranes (Millipore, Billerica, Mass.). The membranes were blocked in TBS containing 0.5% Tween 20 (TBS-T) and 5% milk for 1 hour at 25° C. and were then washed twice for 20 minutes in each case in TBS-T. The membranes were incubated overnight at 4° C. with the primary antibody. […] The bound antibody was detected by enhanced chemiluminescence detection reagents (Pierce Biotechnology, Inc, Rockford, Ill., USA), according to manufacturer's instructions. […] Densitometric analysis was performed using Quantity One Program (Bio-Rad Laboratories srl, Segrate, MI, Italy).

ERalpha = experiment: Nucleocytoplasmic fractionation and Western blot for ER in MCF-7 cells; assay type: cell-based, human; conditions: 5 or 30 min treatment, FIG. 4A
Protocol: The oestrogen receptor α-positive MCF-7 human breast adenocarcinoma cell line, acquired from American Type Culture Collection (no. HTB-22, ATCC-LGC Promochem, Teddington, UK), was cultured in Dulbecco's modified eagle's medium (DMEM; Invitrogen, Karlsruhe, Germany), supplemented with 10% foetal bovine serum (FBS; Invitrogen) and antibiotics. Primary cultures of human oestrogen-sensitive keratinocytes (KCs) were established from 1 cm^2 full-thickness mucosal biopsy of the vaginal vestibule. […]
as §2
The cells were harvested in PBS and centrifuged at 2000 rpm for 5 minutes to obtain a pellet, resuspended in cellular lysis buffer containing Hepes 10 mM pH 8, 50 mM NaCl, 1 mM EDTA pH 8, 0.2% TritonX100, sucrose 500 mM and protease inhibitors, stirred, and placed in ice for 15 min. […] The efficiency of the fractionation was analysed by means of immunoblotting using an anti-β-tubulin antibody as cytoplasmic marker and an anti-lamin B antibody as nuclear marker.

C[C@]12CC[C@@H]3c4ccc(O)cc4CC[C@H]3[C@@H]1CC[C@@H]2O [E2, 17β-oestradiol]
phosphorylation of p38 (MAPK p38): able to phosphorylate the protein p38
efficacy in terms of cell proliferation of E2 compared to KGF (Ki67-positive cells) ([1]; low doses (0.5 ng/ml), 24 h, FIG. 1A): 1.2 fold increase
proliferative effect in the presence of tamoxifen [1]: inhibited by the presence of tamoxifen
activation (phosphorylation) of ERK1 and 2 (MAPK ERK1 and 2): less consistent rise in the levels of phosphorylation of ERK1 and 2 limited to 5 min of treatment
activation of ERK 1 and 2 at longer times (MAPK ERK1 and 2; 30 min): considerably reduced
redistribution of ER between cytoplasmic and nuclear fractions (ERalpha): dramatic redistribution of ER in the nucleus

B1: keratinocyte growth factor (protein, listed as Homo sapiens)
chain: MHKWILTWILPTLLYRSCFHIICLVGTISLACNDMTPEQMATNVNCSSPERHTRSYDYMEGGDIRVRRLFCRTQWYLRIDKRGKVKGTQEMKNNYNIMEIRTVAVGIVAIKGVESEFYLAMNKEGKLYAKKECNEDCNFKELILENHYNTYASAKWTHNGGEMFVALNQKGIPVRGKKTKKEQKTAHFLPMAIT
notes: human recombinant KGF (Upstate Biotechnology)
phosphorylation of p38 (MAPK p38): able to phosphorylate the protein p38
proliferative effect compared to E2 (Ki67-positive cells) ([1]; 20 ng/ml for KGF and 2.7 ng/ml for E2, FIG. 1A): absolutely comparable to that of the hormone
stimulation of proliferation of the vaginal epithelium in pre-menopausal and post-menopausal populations ([1]; 20 ng/ml, KC from pre-menopausal and post-menopausal women, FIG. 1B): able to stimulate proliferation of the vaginal epithelium in a manner comparable to that of oestradiol
proliferative effect in the presence of tamoxifen [1]: able to stimulate cell proliferation even in the presence of tamoxifen
activation (phosphorylation) of ERK1 and 2 (MAPK ERK1 and 2): consistent and constant activation of MAPK
redistribution of ER between cytoplasmic and nuclear fractions (ERalpha): does not appear able to induce any significant redistribution of the receptor in the nucleus
